In patent US11752138B2 (VANDERBILT UNIVERSITY, priority 2020, dated 2023):

Target: Human LDHA (Homo sapiens (Human), UniProt P00338)
Assay: human LDHA primary biochemical assay (Example 1)
Settings: biochemical LDHA inhibitory activity, assay of Example 1
Description: This example describes a human LDHA primary biochemical assay employed in the characterization of a compound of Formula I in an embodiment of the dislcosure.
Test compounds were placed in a Greiner Bio-One (Monroe, N.C.) 1536-well black solid bottom assay plate. 200 millimolar (mM) Tris HCl, pH 7.4, 100 micromolar (μM) EDTA and 0.01% TWEEN-20™, final concentration, was used as the assay buffer. The LDHA reagent was 2 nanomolar (nM) Human LDHA (Meridian Life Science, Inc., Memphis, Tenn.), final concentration, in assay buffer. The substrate reagent was 0.06 mM NADH and 0.2 mM sodium pyruvate, final concentration, in assay buffer. The resazurin/diaphorase coupling reagent was 0.037 mM resazurin and 0.133 milligrams per milliliter (mg/mL) diaphorase, final concentration, in assay buffer. The inhibition of LDHA activity was measured by fluorescence emission. […]

Compound | IC50 [nM]
NS(=O)(=O)c1ccc(Cc2c(-c3cccc(-c4ccc(C5CC5)cc4)c3)nn(-c3nc(C(=O)O)cs3)c2CC2CC2)cc1F [Compound 222, 2-(3-(4′-cyclopropyl-[1,1′-biphenyl]-3-yl)-5-(cyclopropylmethyl)-4-(3-fluoro-4-sulfamoylbenzyl)-1H-pyrazol-1-yl)thiazole-4-carboxylic acid] | 100 to 1000
Cc1cc(-c2cc(-c3nn(-c4nc(C(=O)O)cs4)c(CC4CC4)c3Cc3ccc(S(N)(=O)=O)c(F)c3)ccc2F)ccc1F [Compound 195, 2-(5-(cyclopropylmethyl)-3-(4′,6-difluoro-3′-methyl-[1,1′-biphenyl]-3-yl)-4-(3-fluoro-4-sulfamoylbenzyl)-1H-pyrazol-1-yl)thiazole-4-carboxylic acid] | < 100
NS(=O)(=O)c1ccc(Cc2c(-c3ccc(F)c(-c4ccc(F)c(F)c4)c3)nn(-c3nc(C(=O)O)cs3)c2CC2CC2)cc1F [Compound 136, 2-(5-(cyclopropylmethyl)-4-(3-fluoro-4-sulfamoylbenzyl)-3-(3′,4′,6-trifluoro-[1,1′-biphenyl]-3-yl)-1H-pyrazol-1-yl)thiazole-4-carboxylic acid] | < 100
Cc1ccc(C2CC(c3cccc(-c4nn(-c5nc(C(=O)O)cs5)c(CC5CC5)c4Cc4ccc(S(N)(=O)=O)c(F)c4)c3)C2)s1 (stereo not shown) [Compound 133, 2-(5-(cyclopropylmethyl)-4-(3-fluoro-4-sulfamoylbenzyl)-3-(3-(3-(5-methylthiophen-2-yl)cyclobutyl)phenyl)-1H-pyrazol-1-yl)thiazole-4-carboxylic acid] | < 100
CC(C)c1cnc(-c2cccc(-c3nn(-c4nc(C(=O)O)cs4)c(CC4CC4)c3Cc3ccc(S(N)(=O)=O)c(F)c3)c2)s1 [Compound 215, 2-[5-(cyclopropylmethyl)-4-[(3-fluoro-4-sulfamoylphenyl)methyl]-3-[3-(5-isopropyl-1,3-thiazol-2-yl)phenyl]pyrazol-1-yl]-1,3-thiazole-4-carboxylic acid] | < 100
NS(=O)(=O)c1ccc(Cc2c(-c3ccc(F)c(-c4ccc5c(c4)CCC5)c3)nn(-c3nc(C(=O)O)cs3)c2CC2CC2)cc1F [Compound 155, 2-(5-(cyclopropylmethyl)-3-(3-(2,3-dihydro-1H-inden-5-yl)-4-fluorophenyl)-4-(3-fluoro-4-sulfamoylbenzyl)-1H-pyrazol-1-yl)thiazole-4-carboxylic acid] | < 100
Cc1ccc(-c2cccc(-c3nn(-c4nc(C(=O)O)cs4)c(CC4CC4)c3Cc3ccc(S(N)(=O)=O)c(F)c3)c2)cn1 [Compound 204, 2-(5-(cyclopropylmethyl)-4-(3-fluoro-4-sulfamoylbenzyl)-3-(3-(6-methylpyridin-3-yl)phenyl)-1H-pyrazol-1-yl)thiazole-4-carboxylic acid] | < 100
NS(=O)(=O)c1ccc(Cc2c(-c3ccc(F)c(C4=CCC5(CC4)CC5)c3)nn(-c3nc(C(=O)O)cs3)c2CC2CC2)cc1F [Compound 108, 2-(5-(cyclopropylmethyl)-3-(4-fluoro-3-(spiro[2.5]oct-5-en-6-yl)phenyl)-4-(3-fluoro-4-sulfamoylbenzyl)-1H-pyrazol-1-yl)thiazole-4-carboxylic acid] | < 100
NS(=O)(=O)c1ccc(Cc2c(-c3ccc(F)c(N4CCCC4=O)c3)nn(-c3nc(C(=O)O)cs3)c2CC2CC2)cc1F [Compound 202, 2-(5-(cyclopropylmethyl)-3-(4-fluoro-3-(2-oxopyrrolidin-1-yl)phenyl)-4-(3-fluoro-4-sulfamoylbenzyl)-1H-pyrazol-1-yl)thiazole-4-carboxylic acid] | < 100
N[S+](=O)([O-])c1ccc(Cc2c(-c3ccc(F)c(C(=O)N4CCCC4)c3)nn(-c3nc(C(=O)O)cs3)c2CC2CC2)cc1F [Compound 154] | < 100
NS(=O)(=O)c1ccc(Cc2c(-c3cccc(-c4ccc(O)c(F)c4)c3)nn(-c3nc(C(=O)O)cs3)c2CC2CC2)cc1F [Compound 229, 2-(5-(cyclopropylmethyl)-3-(3′-fluoro-4′-hydroxy-[1,1′-biphenyl]-3-yl)-4-(3-fluoro-4-sulfamoylbenzyl)-1H-pyrazol-1-yl)thiazole-4-carboxylic acid] | < 100
Cc1ccc(C#Cc2cccc(-c3nn(-c4nc(C(=O)O)cs4)c(CCC4CC4)c3Cc3ccc(S(N)(=O)=O)c(F)c3)c2)o1 [Compound 232, 2-(5-(2-cyclopropylethyl)-4-(3-fluoro-4-sulfamoylbenzyl)-3-(3-((5-methylfuran-2-yl)ethynyl)phenyl)-1H-pyrazol-1-yl)thiazole-4-carboxylic acid] | < 100
CC(C)c1ccc(-c2cncc(-c3nn(-c4nc(C(=O)O)cs4)c(CC4CC4)c3Cc3ccc(S(N)(=O)=O)c(F)c3)c2)cc1 [Compound 210, 2-[5-(cyclopropylmethyl)-4-[(3-fluoro-4-sulfamoylphenyl)methyl]-3-[5-(4-isopropylphenyl)pyridin-3-yl]pyrazol-1-yl]-1,3-thiazole-4-carboxylic acid] | < 100
CCC#Cc1cc(-c2nn(-c3nc(C(=O)O)cs3)c(CC3CC3)c2Cc2ccc([S+](N)(=O)[O-])c(F)c2)ccc1F [Compound 109, 2-(3-(3-(but-1-yn-1-yl)-4-fluorophenyl)-5-(cyclopropylmethyl)-4-(3-fluoro-4-sulfamoylbenzyl)-1H-pyrazol-1-yl)thiazole-4-carboxylic acid] | < 100
NS(=O)(=O)c1ccc(Cc2c(-c3cccc(-c4nc5ccccc5[nH]4)c3)nn(-c3nc(C(=O)O)cs3)c2CC2CC2)cc1F [Compound 189, 2-(3-(3-(1H-benzo[d]imidazol-2-yl)phenyl)-5-(cyclopropylmethyl)-4-(3-fluoro-4-sulfamoylbenzyl)-1H-pyrazol-1-yl)thiazole-4-carboxylic acid] | < 100
CN(C)c1cccc(-c2cc(-c3nn(-c4nc(C(=O)O)cs4)c(CC4CC4)c3Cc3ccc(S(N)(=O)=O)c(F)c3)ccc2F)c1 [Compound 194, 2-(5-(cyclopropylmethyl)-3-(3′-(dimethylamino)-6-fluoro-[1,1′-biphenyl]-3-yl)-4-(3-fluoro-4-sulfamoylbenzyl)-1H-pyrazol-1-yl)thiazole-4-carboxylic acid] | < 100
NS(=O)(=O)c1ccc(Cc2c(-c3ccc(F)c(C4=CCC(F)(F)CC4)c3)nn(-c3nc(C(=O)O)cs3)c2CC2CC2)cc1F [Compound 107, 2-(5-(cyclopropylmethyl)-4-(3-fluoro-4-sulfamoylbenzyl)-3-(4′,4′,6-trifluoro-2′,3′,4′,5′-tetrahydro-[1,1′-biphenyl]-3-yl)-1H-pyrazol-1-yl)thiazole-4-carboxylic acid] | < 100

Next, values leading:

IC50 [nM] | Compound
< 100 | NS(=O)(=O)c1ccc(Cc2c(-c3ccc(F)c(C4=CCC(C(F)(F)F)CC4)c3)nn(-c3nc(C(=O)O)cs3)c2CC2CC2)cc1F (stereo not shown) [Compound 102, 2-(5-(cyclopropylmethyl)-3-(6-fluoro-4′-(trifluoromethyl)-2′,3′,4′,5′-tetrahydro-[1,1′-biphenyl]-3-yl)-4-(3-fluoro-4-sulfamoylbenzyl)-1H-pyrazol-1-yl)thiazole-4-carboxylic acid]
< 100 | NS(=O)(=O)c1ccc(Cc2c(-c3cccc(-c4ccc(C5CC5)cc4)c3)nn(-c3nc(C(=O)O)cs3)c2CC2CC2)cc1F [Compound 183, 2-(3-(4′-cyclopropyl-[1,1′-biphenyl]-3-yl)-5-(cyclopropylmethyl)-4-(3-fluoro-4-sulfamoylbenzyl)-1H-pyrazol-1-yl)thiazole-4-carboxylic acid]
< 100 | NS(=O)(=O)c1ccc(Cc2c(-c3ccc(F)c(C4=CCCO4)c3)nn(-c3nc(C(=O)O)cs3)c2CC2CC2)cc1F [Compound 197, 2-(5-(cyclopropylmethyl)-3-(3-(4,5-dihydrofuran-2-yl)-4-fluorophenyl)-4-(3-fluoro-4-sulfamoylbenzyl)-1H-pyrazol-1-yl)thiazole-4-carboxylic acid]
< 100 | Cc1ccc(C(=O)Cc2cccc(-c3nn(-c4nc(C(=O)O)cs4)c(CC4CC4)c3Cc3ccc(S(N)(=O)=O)c(F)c3)c2)s1 [Compound 242, 2-(5-(cyclopropylmethyl)-4-(3-fluoro-4-sulfamoylbenzyl)-3-(3-(2-(5-methylthiophen-2-yl)-2-oxoethyl)phenyl)-1H-pyrazol-1-yl)thiazole-4-carboxylic acid]
< 100 | Cc1ncc(-c2cccc(-c3nn(-c4nc(C(=O)O)cs4)c(CC4CC4)c3Cc3ccc(S(N)(=O)=O)c(F)c3)c2)cn1 [Compound 214, 2-[5-(cyclopropylmethyl)-4-[(3-fluoro-4-sulfamoylphenyl)methyl]-3-[3-(2-methylpyrimidin-5-yl)phenyl]pyrazol-1-yl]-1,3-thiazole-4-carboxylic acid]
< 100 | NS(=O)(=O)c1ccc(Cc2c(-c3ccc(F)c(-c4ccc(C(F)(F)F)cc4)c3)nn(-c3nc(C(=O)O)cs3)c2CC2CC2)cc1F [Compound 138, 2-(5-(cyclopropylmethyl)-3-(6-fluoro-4′-(trifluoromethyl)-[1,1′-biphenyl]-3-yl)-4-(3-fluoro-4-sulfamoylbenzyl)-1H-pyrazol-1-yl)thiazole-4-carboxylic acid]
< 100 | NS(=O)(=O)c1ccc(Cc2c(-c3ccc(F)c(C4=Cc5ccccc5C4)c3)nn(-c3nc(C(=O)O)cs3)c2CC2CC2)cc1F [Compound 105, 2-(5-(cyclopropylmethyl)-3-(4-fluoro-3-(1H-inden-2-yl)phenyl)-4-(3-fluoro-4-sulfamoylbenzyl)-1H-pyrazol-1-yl)thiazole-4-carboxylic acid]
< 100 | Cc1cc(-c2cc(-c3nn(-c4nc(C(=O)O)cs4)c(CC4CC4)c3Cc3ccc(S(N)(=O)=O)c(F)c3)ccc2F)ccc1C(C)C [Compound 213, 2-[5-(cyclopropylmethyl)-3-[4-fluoro-3-(4-isopropyl-3-methylphenyl)phenyl]-4-[(3-fluoro-4-sulfamoylphenyl)methyl]pyrazol-1-yl]-1,3-thiazole-4-carboxylic acid]
